Results taken from patent US20040009208A1, “Safe and effective nutritional supplement formulations and associated regimens adapted to prevent and/or treat targeted diseases or medical or health conditions, and related methods” (Vital Living, Inc., priority 2002, published 2004).

Assays:
[1] = tested on: triglycerides; settings: low doses (500-1000 mg/day); cited from earlier work
[2] = tested on: triglycerides; experiment: Projected benefit on triglyceride level (Table 5); assay type: in vivo, patients; settings: expected range of benefits, CVD-specific nutraceutical regimen
Excerpt: (§1) The particular CVD-specific nutraceuticals and regimens herein disclosed were also designed to achieve a measurable benefit on lipid levels equivalent to those provided by many popular pharmaceutical drug therapies. The expected range of benefits (“NC” indicating no change) is projected as indicated below in Table 5. Given that all of the nutritional supplement ingredients used in the CVD-specific nutraceutical herein disclosed operate according to independent mechanisms, the cumulative effective on LDL cholesterol, HDL cholesterol, triglycerides and homocysteine levels would be additive and would not counteract each other or interfere with common CVD prescription pharmaceutical treatments.

[3] = tested on: LDL cholesterol; experiment: Projected benefit on LDL cholesterol level (Table 5); assay type: in vivo, patients; design: key: “NC” indicating no change; settings: expected benefit, class symbol
Excerpt: as §1

[4] = tested on: HDL cholesterol; experiment: Projected benefit on HDL cholesterol level (Table 5); assay type: in vivo, patients; settings: expected range of benefits, CVD-specific nutraceutical regimen
Excerpt: as §1

[5] = tested on: homocysteine; experiment: Projected benefit on homocysteine level (Table 5); assay type: in vivo, patients; design: key: “NC” indicating no change; settings: expected benefit, class symbol
Excerpt: as §1

[6] = tested on: HDL cholesterol; settings: low doses (500-1000 mg/day); cited from earlier work
[7] = tested on: LDL cholesterol; settings: higher doses (1000-3000 mg/day); cited from earlier work

## O=C(O)c1cccnc1 [Niacin]
[1]
  effect on triglycerides: lower triglycerides
[2]
  TRIGLYCERIDES decrease: 0-10%
[3]
  LDL: NC
[4]
  HDL increase: 5-10%
[5]
  HOMOCYSTEINE: NC
[6]
  effect on HDL cholesterol: raise HDL cholesterol
[7]
  effect on LDL cholesterol: decrease LDL cholesterol modestly
